Test results as given in the NIST ThermoML archive (doi:10.1016/j.jct.2017.06.008).

Tests used:
[1] = xn = mol fraction of the nth substance listed; settings: 100 kPa, Liquid; for speed of sound: Frequency=3 MHz, Single path-length method; for mass density: Vibrating tube method
[2] = refractive index (Na D-line) (dimensionless); xn = mol fraction of the nth substance listed; settings: 100 kPa, Liquid, Standard Abbe refractometry

CC(=O)CC(C)C [4-methylpentan-2-one] + C1CCCCC1
Settings	mass density, 293.15 K [kg/m3]	mass density, 303.15 K [kg/m3]	mass density, 313.15 K [kg/m3]	refractive index, 293.15 K	refractive index, 303.15 K	refractive index, 313.15 K	speed of sound, 293.15 K [m/s]	speed of sound, 303.15 K [m/s]	speed of sound, 313.15 K [m/s]
[1], x1 = 0.0978	778	769	759	–	–	–	1260.7	1212.6	1165.6
[1], x1 = 0.1984	780	770	760	–	–	–	1246.9	1200	1154
[1], x1 = 0.3014	781	772	762	–	–	–	1236.2	1190.3	1145.3
[1], x1 = 0.4007	783	774	764	–	–	–	1228.8	1183.5	1139.2
[1], x1 = 0.5023	786	776	767	–	–	–	1222	1178	1134.6
[1], x1 = 0.6028	788	779	770	–	–	–	1217.4	1174.2	1131.6
[1], x1 = 0.7038	791	782	773	–	–	–	1214.2	1171.8	1129.9
[1], x1 = 0.8062	794	785	776	–	–	–	1212.1	1170.4	1129.2
[1], x1 = 0.9004	797	788	779	–	–	–	1211.3	1170.2	1129.6
[1], x1 = 1	801	792	782	–	–	–	1212.3	1171.4	1131.4
[2], x1 = 0.0978	–	–	–	1.421	1.416	1.411	–	–	–
[2], x1 = 0.1984	–	–	–	1.417	1.412	1.406	–	–	–
[2], x1 = 0.3014	–	–	–	1.413	1.408	1.403	–	–	–
[2], x1 = 0.4007	–	–	–	1.41	1.405	1.4	–	–	–
[2], x1 = 0.5023	–	–	–	1.407	1.402	1.397	–	–	–
[2], x1 = 0.6028	–	–	–	1.404	1.399	1.394	–	–	–
[2], x1 = 0.7038	–	–	–	1.402	1.397	1.392	–	–	–
[2], x1 = 0.8062	–	–	–	1.399	1.395	1.39	–	–	–
[2], x1 = 0.9004	–	–	–	1.398	1.393	1.388	–	–	–
[2], x1 = 1	–	–	–	1.396	1.391	1.387	–	–	–

CC(=O)CC(C)C [4-methylpentan-2-one] + CC#N
Settings	mass density, 293.15 K [kg/m3]	mass density, 303.15 K [kg/m3]	mass density, 313.15 K [kg/m3]	refractive index, 293.15 K	refractive index, 303.15 K	refractive index, 313.15 K	speed of sound, 293.15 K [m/s]	speed of sound, 303.15 K [m/s]	speed of sound, 313.15 K [m/s]
[1], x1 = 0.102	786	776	765	–	–	–	1280.4	1239.9	1199.1
[1], x1 = 0.1961	790	779	769	–	–	–	1267.6	1226.3	1185.4
[1], x1 = 0.3082	792	782	772	–	–	–	1255.2	1213.5	1172.5
[1], x1 = 0.4019	794	784	774	–	–	–	1245.9	1204.6	1163.8
[1], x1 = 0.5188	796	787	777	–	–	–	1237.4	1195.8	1155
[1], x1 = 0.6001	797	788	778	–	–	–	1231.4	1190.3	1149.7
[1], x1 = 0.7014	798	789	779	–	–	–	1225.4	1184.5	1144
[1], x1 = 0.8008	799	790	780	–	–	–	1220.8	1179.6	1139.3
[1], x1 = 0.8801	800	791	781	–	–	–	1216.6	1175.9	1135.7
[1], x1 = 1	801	792	782	–	–	–	1212.3	1171.4	1131.4
[2], x1 = 0.102	–	–	–	1.355	1.35	1.345	–	–	–
[2], x1 = 0.1961	–	–	–	1.363	1.358	1.353	–	–	–
[2], x1 = 0.3082	–	–	–	1.371	1.366	1.361	–	–	–
[2], x1 = 0.4019	–	–	–	1.376	1.371	1.367	–	–	–
[2], x1 = 0.5188	–	–	–	1.381	1.377	1.372	–	–	–
[2], x1 = 0.6001	–	–	–	1.385	1.38	1.375	–	–	–
[2], x1 = 0.7014	–	–	–	1.388	1.384	1.379	–	–	–
[2], x1 = 0.8008	–	–	–	1.391	1.387	1.382	–	–	–
[2], x1 = 0.8801	–	–	–	1.393	1.389	1.384	–	–	–
[2], x1 = 1	–	–	–	1.396	1.391	1.387	–	–	–

CC(=O)CC(C)C [4-methylpentan-2-one] + CC(C)=O
Settings	mass density, 293.15 K [kg/m3]	mass density, 303.15 K [kg/m3]	mass density, 313.15 K [kg/m3]	refractive index, 293.15 K	refractive index, 303.15 K	refractive index, 313.15 K	speed of sound, 293.15 K [m/s]	speed of sound, 303.15 K [m/s]	speed of sound, 313.15 K [m/s]
[1], x1 = 0.1004	791	780	769	–	–	–	1185.7	1140.9	1096.8
[1], x1 = 0.1992	793	782	771	–	–	–	1186.8	1143	1099.4
[1], x1 = 0.3012	794	783	773	–	–	–	1189.2	1145.9	1102.9
[1], x1 = 0.396	795	785	774	–	–	–	1191.8	1149	1106.4
[1], x1 = 0.5005	796	786	776	–	–	–	1194.8	1152.4	1110.4
[1], x1 = 0.6912	798	788	779	–	–	–	1201.1	1159.5	1118.3
[1], x1 = 0.7996	799	790	780	–	–	–	1205.2	1163.6	1122.9
[1], x1 = 0.8992	799	791	781	–	–	–	1208	1167.2	1126.9
[1], x1 = 1	800	792	782	–	–	–	1212.3	1171.4	1131.4
[2], x1 = 0.1004	–	–	–	1.365	1.359	1.354	–	–	–
[2], x1 = 0.1992	–	–	–	1.37	1.364	1.359	–	–	–
[2], x1 = 0.3012	–	–	–	1.374	1.369	1.365	–	–	–
[2], x1 = 0.396	–	–	–	1.378	1.373	1.368	–	–	–
[2], x1 = 0.5005	–	–	–	1.382	1.377	1.372	–	–	–
[2], x1 = 0.6912	–	–	–	1.388	1.383	1.379	–	–	–
[2], x1 = 0.7996	–	–	–	1.391	1.386	1.382	–	–	–
[2], x1 = 0.8992	–	–	–	1.394	1.389	1.384	–	–	–
[2], x1 = 1	–	–	–	1.396	1.391	1.387	–	–	–

CC(=O)CC(C)C [4-methylpentan-2-one] + C[S+](C)[O-]
Settings	mass density, 293.15 K [kg/m3]	mass density, 303.15 K [kg/m3]	mass density, 313.15 K [kg/m3]	refractive index, 293.15 K	refractive index, 303.15 K	refractive index, 313.15 K	speed of sound, 293.15 K [m/s]	speed of sound, 303.15 K [m/s]	speed of sound, 313.15 K [m/s]
[1], x1 = 0.1002	1052	1043	1033	–	–	–	1453.8	1418.9	1384.7
[1], x1 = 0.2004	1010	1001	991	–	–	–	1409.2	1373.8	1339.2
[1], x1 = 0.3004	973	964	954	–	–	–	1371.9	1336	1300.8
[1], x1 = 0.4007	940	931	921	–	–	–	1338.7	1302.9	1267.1
[1], x1 = 0.4982	912	902	893	–	–	–	1311.8	1275.3	1238.9
[1], x1 = 0.5999	885	875	866	–	–	–	1287.1	1249.8	1212.7
[1], x1 = 0.6992	861	851	842	–	–	–	1266.1	1227.9	1190
[1], x1 = 0.7995	839	830	820	–	–	–	1246.5	1207.5	1168.9
[1], x1 = 0.8981	819	810	801	–	–	–	1229.3	1189.2	1149.9
[1], x1 = 1	801	792	782	–	–	–	1212.3	1171.4	1131.4
[2], x1 = 0.1002	–	–	–	1.466	1.462	1.458	–	–	–
[2], x1 = 0.2004	–	–	–	1.455	1.451	1.446	–	–	–
[2], x1 = 0.3004	–	–	–	1.445	1.441	1.436	–	–	–
[2], x1 = 0.4007	–	–	–	1.436	1.432	1.427	–	–	–
[2], x1 = 0.4982	–	–	–	1.428	1.423	1.419	–	–	–
[2], x1 = 0.5999	–	–	–	1.42	1.416	1.411	–	–	–
[2], x1 = 0.6992	–	–	–	1.413	1.409	1.404	–	–	–
[2], x1 = 0.7995	–	–	–	1.407	1.402	1.398	–	–	–
[2], x1 = 0.8981	–	–	–	1.401	1.397	1.392	–	–	–
[2], x1 = 1	–	–	–	1.396	1.391	1.387	–	–	–
